Data reported in US6544989B2, “Benzazoles: benzoxazole, benzthiazole and benzimidazole derivatives” (Syngenta Limited, priority 1998, dated 2003).
Where two headings read alike, the source gives them in different places. Marks after values point to notes of the source that are not given here.

Assays:
Meloidogyne incognita = assay: Nematode test, J2 infective juveniles of Meloidogyne incognita, mortality; settings: 12.5 ppm; J2 infective juveniles suspended in solution; mortality after three days
Musca domestica = settings: 500 ppm by weight; knockdown assessed 15 minutes after treatment
Rhizoctonia solani = assay: Fungicidal test, Rhizoctonia solani (RHIZSO) on rice, PRCO; assay type: in vivo; settings: METHOD 2 (unbanded)
Septoria nodorum = assay: Fungicidal test, Septoria nodorum (LEPTNO) on wheat, PRCO; assay type: in vivo
Uncinula necator = assay: Fungicidal test, Uncinula necator (UNCINE) on vines, PRCO; assay type: in vivo; settings: METHOD 2 (unbanded)
Puccinia recondita = assay: Fungicidal test, Puccinia recondita (PUCCRT) on wheat, PRCO; assay type: in vivo
Plasmopara viticola = assay: Fungicidal test, Plasmopara viticola (PLASVI) on vines, PRCO; assay type: in vivo
Venturia inaequalis = assay: Fungicidal test, Venturia inaequalis (VENTIN) on apples, PRCO; assay type: in vivo; settings: METHOD 2 (unbanded)
[1] = test system: Erysiphe graminis f.sp. tritici; assay: Fungicidal test, Erysiphe graminis f.sp. tritici (ERYSGT) on wheat, PRCO; assay type: in vivo; settings: for ERYSGT 1 d Prot/Foir PRCO: METHOD 2 (unbanded); for ERYSGT 6 hr Prot/Foir PRCO: METHOD 1 (values marked *)
Pyricularia oryzae = assay type: in vivo; settings: METHOD 2 (unbanded)
[2] = test system: Phytophthora infestans lycopersici; assay type: in vivo

Row | Compound | MELGIN = Meloidogyne incognita, grading of mortality (score) (Meloidogyne incognita) | MUSCDO AC = Musca domestica (knockdown), score (Musca domestica) | RHIZSO 1 d Prot/Foir PRCO (Rhizoctonia solani) | LEPTNO 1 d Prot/Foir PRCO (Septoria nodorum; METHOD 2 (unbanded)) | UNCINE 1 d Prot/Foir PRCO (Uncinula necator) | PUCCRT 1 d Prot/Foir PRCO (Puccinia recondita; METHOD 2 (unbanded)) | PLASVI 1 d Prot/Foir PRCO (Plasmopara viticola; METHOD 2 (unbanded)) | VENTIN 1 d Prot/Foir PRCO (Venturia inaequalis) | ERYSGT 1 d Prot/Foir PRCO [1] | PYRIOR 1 d Prot/Foir PRCO (Pyricularia oryzae) | PUCCRT 1 d Prot/Foir PRCO (Puccinia recondita; METHOD 1 (values marked *)) | PHYTIN 1 d Prot/Foir PRCO ([2]; METHOD 1 (values marked *)) | PHYTIN 1 d Prot/Foir PRCO ([2]; METHOD 2 (unbanded)) | LEPTNO 1 d Prot/Foir PRCO (Septoria nodorum; METHOD 1 (values marked *)) | PLASVI 1 d Prot/Foir PRCO (Plasmopara viticola; METHOD 1 (values marked *)) | ERYSGT 6 hr Prot/Foir PRCO [1]
1 | CC=C(C)c1nc2cc(CC(=O)Nc3snc(C)c3Cl)ccc2o1 [47(A3)] | 0 (0 indicates less than 40% mortality) | 0 (0 indicates less than 40% mortality) | 0 | 63 | 98 | 99 | 92 | 37 | 86 | 88 | – | – | – | – | – | –
2 | Cc1nsc(NC(=O)Cc2ccc3oc(COc4ccccc4)nc3c2)c1Cl [140(A3)] | 0 (0 indicates less than 40% mortality) | 0 (0 indicates less than 40% mortality) | 0 | 13 | 99 | 96 | 63 | 70 | 44 | – | – | – | – | – | – | –
3 | CSc1nc2cc(CC(=O)Nc3snc(C)c3Cl)ccc2o1 [220(A3)] | 0 (0 indicates less than 40% mortality) | 5 (5 indicates 40-79% mortality) | 0 | 17 | −5 | – | 6 | 11 | 12 | – | 100* | 100* | – | – | – | –
4 | CCSc1nc2cc(CC(=O)Nc3snc(C)c3Cl)ccc2o1 [221(A3)] | 0 (0 indicates less than 40% mortality) | 9 (9 indicates 80-100% mortality) | 0 | 20 | 23 | 99 | 84 | 25 | 50 | 93 | – | – | 99 | – | – | –
5 | Cc1nsc(NC(=O)Cc2ccc3oc(SC(C)C)nc3c2)c1Cl [223(A3)] | 0 (0 indicates less than 40% mortality) | 0 (0 indicates less than 40% mortality) | 0 | 12 | 30 | 99 | 55 | 60 | 73 | 63 | – | – | 93 | – | – | –
6 | Cc1nsc(NC(=O)Cc2ccc3oc(SC(C)(C)C)nc3c2)c1Cl [224(A3)] | 0 (0 indicates less than 40% mortality) | 0 (0 indicates less than 40% mortality) | 0 | 16 | 91 | 98 | 99 | 60 | 88 | 91 | – | – | 100 | – | – | –
7 | Cc1nsc(NC(=O)Cc2ccc3oc(-c4ccccc4)nc3c2)c1Cl [248(A3)] | 0 (0 indicates less than 40% mortality) | 0 (0 indicates less than 40% mortality) | 7 | – | 7 | – | – | 100 | – | – | 100* | 17* | – | 0* | 97* | 0*
8 | Cc1nsc(NC(=O)Cc2ccc3oc(-c4ccc(C(C)(C)C)cc4)nc3c2)c1Cl [252(A3)] | 0 (0 indicates less than 40% mortality) | 0 (0 indicates less than 40% mortality) | 0 | −13 | 79 | 97 | 38 | −47 | 30 | 46 | – | – | – | – | – | –
9 | Cc1nsc(NC(=O)Cc2ccc3oc(-c4ccc(Cl)cc4Cl)nc3c2)c1Cl [257(A3)] | 5 (5 indicates 40-79% mortality) | 0 (0 indicates less than 40% mortality) | 11 | – | 61 | – | – | 0 | – | – | 100* | 0* | – | 0* | 79* | 0*
